Earlier results in patent US20080033027A1, “Drug combination pharmaceutical compositions and methods for using them” (VICUS THERAPEUTICS SPE 1, LLC, priority 2005, published 2008).
Where a name gives a salt, the structure may show the parent alone. Read-outs that look alike come from different tables or passages of the source.

Assays:
[1] = for solubility in ethanol / alcohol: alcohol(s)
[2] = for Elimination, Biliary/fecal (%): share eliminated by the biliary/fecal route; for Elimination, Renal (%): share eliminated by the renal route; for Elimination (% unchanged): value in parentheses
[3] = oral EPA, after entering the blood stream
[4] = tested on: cachectic severely burned children; cachectic metastatic cancer patients
[5] = cachectic metastatic cancer patients
[6] = cachectic severely burned children

SMILES	Half-life ([2]; in vivo)	Oral Absorp. (%) ([2]; in vivo)	Elimination, Renal (%) [2]	Time to Peak Effect Single dose [2]	Biotransformation ([2]; in vivo)	Removable by Hemodialysis ([2]; in vivo)	Elimination (% unchanged) [2]	Elimination (route) ([2]; in vivo)	also measured
COCCc1ccc(OCC(O)CNC(C)C)cc1 (racemic) [Metoprolol succinate, (±)1-(isopropylamino)-3-[p-(2-methoxyethyl)phenoxy]-2-propanol succinate (2:1) (salt)]	–	–	–	–	–	–	–	–	solubility in ethanol / alcohol [1]: sparingly soluble; solubility in water [1]: freely soluble
COCCc1ccc(OCC(O)CNC(C)C)cc1 (racemic) [Metoprolol tartrate, (±)-1-(isopropylamino)-3-(p-(2-(methoxyethyl)phenoxy)-2-propanol (2:1) dextrotartrate salt]	–	–	–	–	–	–	–	–	solubility in ethanol / alcohol [1]: freely soluble; solubility in water [1]: very soluble
CCc1cccc2c3c([nH]c12)C(CC)(CC(=O)O)OCC3 (single isomer, unassigned; (+)) [Etodolac, (+) 1,8-diethyl-1,3,4,9-tetrahydropyrano-[3,4-b]indole-1-acetic acid]	–	–	–	–	–	–	–	–	solubility in ethanol / alcohol [1]: soluble; solubility in water [1]: insoluble; GI complications rate (among non-specific Cox inhibitors): lowest; cardiovascular events (compared with specific cox2 inhibitors): without the reported increase
CC(C)NCC(O)COc1ccc(CCOCC2CC2)cc1 (stereo not shown) [Betaxolol]	14 to 22 h	80-89%	> 80%	3 to 4 h	Hepatic	No	15%	–	–
CC(C)(C)NCC(O)COc1cccc2c1CCC(=O)N2 (stereo not shown) [Carteolol]	6 h	85%	–	1 to 3 h	Hepatic	–	(50-70) %	Renal	–
COc1ccccc1OCCNCC(O)COc1cccc2[nH]c3ccccc3c12 (stereo not shown) [Carvedilol]	7 to 10 h	25-35%	<2% Renal	–	Hepatic	No	–	–	–
CC/C=C\C/C=C\C/C=C\C/C=C\C/C=C\CCCC(=O)O [EPA, eicosapentaenoic acid]	–	–	–	–	–	–	–	–	cleared in the first pass (liver) [3]: ≤ 90%
CC(CCc1ccccc1)NCC(O)c1ccc(O)c(C(N)=O)c1 (stereo not shown) [Labetalol]	–	100%	55-60%	–	Hepatic	No	< 5%	Biliary/fecal	Half-life (hr) ([2]; IV): ~5.5 IV hr; Half-life (hr) ([2]; oral): 6-8 oral hr; Time to Peak Effect Single dose ([2]; IV): 0.083 h (IV); Time to Peak Effect Single dose ([2]; oral): 2 to 4 h
CC(C)(C)NCC(O)COc1cccc2c1CC(O)C(O)C2 (stereo not shown) [Nadolol]	20 to 24 h	30%	–	4 h	None	Yes	70%	Renal	Half-life ([2]; stated in the text): 10 to 24 h; route of elimination ([2]; stated in the text): kidney excreted
C=CCOc1ccccc1OCC(O)CNC(C)C (stereo not shown) [Oxprenolol]	1.3 to 1.5 h	90%	–	–	Hepatic	–	< 5%	Renal	–
CC(C)(C)NC[C@H](O)COc1ccccc1C1CCCC1 [Penbutolol]	5 h	100%	90%	1.5 to 3 h	Hepatic	No	0%	–	–
CC(C)NCC(O)COc1cccc2ccccc12.Cl (stereo not drawn) [Propranolol, 2-Propanol, 1-[(1-methylethyl)amino]-3-(1-naphthalenyloxy)-, hydrochloride, (+)-]	3 to 5 h	–	–	–	–	–	–	–	stability of the solid ([1]; crystalline solid): stable; solubility in ethanol / alcohol [1]: readily soluble; solubility in water [1]: readily soluble; adverse events ([4]; both previous trials): No adverse events were reported; elevated inflammatory cytokines [4, 5]: reduction; elevated resting energy expenditure [4, 5]: reduction; elevated inflammatory cytokines [4, 6]: reduction; elevated resting energy expenditure [4, 6]: reduction; rate of loss of lean body mass [4, 6]: reduction
CC(C)(C)NC[C@H](O)COc1nsnc1N1CCOCC1 [Timolol]	4 h	90%	–	1 to 2 h	Hepatic	No	20%	–	Elimination (route) ([2]; in vivo, fecal elimination): Fecal; Elimination (route) ([2]; in vivo, renal elimination): Renal

Further lines, with some results ahead:

Half-life ([2]; in vivo)	Oral Absorp. (%) ([2]; in vivo)	Elimination, Renal (%) [2]	Time to Peak Effect Single dose [2]	Biotransformation ([2]; in vivo)	Removable by Hemodialysis ([2]; in vivo)	Elimination (% unchanged) [2]	Elimination (route) ([2]; in vivo)	SMILES	also measured
3 to 4 h	70%	30-40%	–	–	–	–	–	CCCC(=O)Nc1ccc(OCC(O)CNC(C)C)c(C(C)=O)c1 (stereo not shown) [Acebutolol]	Elimination, Biliary/fecal (%) [2]: 50-60%
–	50-60%	85-100%	2 to 4 h	–	–	–	–	CC(C)NCC(O)COc1ccc(CC(N)=O)cc1 (stereo not shown) [Atenolol]	–
9 to 12 h	80-90%	–	–	Hepatic	No	50%	Renal	CC(C)NCC(O)COc1ccc(COCCOC(C)C)cc1 (stereo not shown) [Bisoprolol]	Elimination, Biliary/fecal (%) [2]: <2% Fecal; Half-life ([2]; stated in the text): 10 to 12 h
3 to 7 h	–	–	–	–	–	–	–	COCCc1ccc(OCC(O)CNC(C)C)cc1 (stereo not shown) [Metoprolol]	–
3 to 4 h	90-100%	–	–	–	–	40%	Renal	CC(C)NCC(O)COc1cccc2[nH]ccc12 (stereo not shown) [Pindolol]	–
7 to 18 h	>80%	–	–	–	–	75%	Renal	CC(C)NCC(O)c1ccc(NS(C)(=O)=O)cc1 (stereo not shown) [Sotalol]	–
